Measurements from patent US20260374731A1, “ANTIMICROBIAL CONJUGATED OLIGOELECTROLYTES AS BROAD-SPECTRUM ANTIBIOTICS” (The Regents of the University of California, priority 2023, published 2026).

Columns and labels:
[1] = system: S. aureus (SA) ATCC 259213; experiment: Susceptibility test (MIC), broth dilution, S. aureus; assay type: cell-based; conditions: Staphylococcus aureus, ATCC259213, read-out: Minimum Inhibitory Concentration
Protocol: (§1) The minimum inhibitory concentration (MIC) was determined according to the Clinical and Laboratory Standards Institute (CLSI) guidelines by broth dilution. Bacteria were cultured in an appropriate medium (such as Cation-Adjusted Muller Hinton Broth) for 6-12 hours and diluted into same medium containing 2-fold serial dilutions of antibiotics. MIC values were derived after 14-20 hour incubation, and were the result of at least 3 independent determinations. The MIC study included Gram-negative strains Salmonella enterica Typhimurium (ST) ATCC 14028, E. coli (EC) ATCC 25922, Pseudomonas aeruginosa (PA) ATCC 27853, and Klebsiella pneumoniae (KPN) ATCC 700603 and Gram-positive strain S. aureus (SA) ATCC 259213.

[2] = system: Pseudomonas aeruginosa (PA) ATCC 27853; experiment: Susceptibility test (MIC), broth dilution, Pseudomonas aeruginosa; assay type: cell-based; conditions: ATCC27853, Pseudomonas aeruginosa ATCC 27853, 14-20 hour incubation, read-out: Minimum Inhibitory Concentration
Protocol: as §1

[3] = system: E. coli (EC) ATCC 25922; experiment: Susceptibility test (MIC), broth dilution, E. coli; assay type: cell-based; conditions: Escherichia coli, ATCC25922, E. coli ATCC 25922, 14-20 hour incubation, read-out: Minimum Inhibitory Concentration
Protocol: as §1

[4] = system: HepG2 (ATCC HB-8065) cells; experiment: Cytotoxicity, MTT viability assay, HepG2; assay type: cell-based
Protocol: (§2) Cellular cytotoxicity was assessed using an MTT viability assay. HepG2 (ATCC HB-8065) cells were seeded at 1×10^4 cells/well in 96 well plates over night at 37 °C in DMEM supplemented with 10% FBS before use. Compounds were serially diluted with 2-fold dilution in culture media to afford a concentration ranging from 8 to 1024 μg/mL. After 24 h incubation, 10 μL of a 5 mg/mL solution of MTT was added to each well. After incubation for 2-4 h, upon discard of previous media, 100 μL of DMSO as solubilizing solution was added to each well, and absorbance at 570 nm were measured on a plate reader. Percent viability was determined by dividing background-corrected absorbance measurements by background corrected measurements for untreated cells. The lowest concentration for which percent viability was less than 50% was deemed the cytotoxicity IC50.

[5] = Cytotoxicity, MTT viability assay, HepG2; assay type: cell-based; conditions: human, hepg2 cells; HepG2, MTT, 24 h incubation, 8 to 1024 μg/mL; lowest concentration with viability less than 50%; read-out: Cytotoxicity (IC50)
Protocol: as §2

[6] = Hydrophobicity (comparison; RP-HPLC retention times in Table 1); assay type: physicochemical
From the text: The MIC and cytotoxicity results for previously-described quaternary ammonium COEs COE2-3C, COE2-3C-C4butyl, and COE2-3C-C4hexyl are consistent with previous data (See Limwongyut et al., Chem. Sci. (2020) 11 (31): 8138-8144).

[7] = system: all tested bacterial strains; experiment: Susceptibility test, comparison over all tested bacterial strains; assay type: cell-based, Gram-positive and Gram-negative bacteria
Protocol: as §1

[8] = system: Salmonella enterica Typhimurium (ST) ATCC 14028; experiment: Susceptibility test (MIC), broth dilution, Salmonella enterica Typhimurium; assay type: cell-based; conditions: Salmonella enterica Typhimurium ATCC 14028, 14-20 hour incubation, read-out: Minimum Inhibitory Concentration
Protocol: as §1

[9] = system: Klebsiella pneumoniae (KPN) ATCC 700603; experiment: Susceptibility test (MIC), broth dilution, Klebsiella pneumoniae; assay type: cell-based; conditions: ATCC700603, Klebsiella pneumoniae ATCC 700603, 14-20 hour incubation, read-out: Minimum Inhibitory Concentration
Protocol: as §1

[10] = Formula K and Formula A compared with each other
[11] = Formula A compared with COE2-3C and COE2-3C-C4butyl
[12] = Formula C and Formula K compared with each other
[13] = Formula C compared with COE2-3C-C4butyl

Question: With `N=C(NCCCOc1cc(/C=C/c2ccc(/C=C/c3cc(OCCCNC(=N)C4CC4)cc(OCCCNC(=N)C4CC4)c3)cc2)cc(OCCCNC(=N)C2CC2)c1)C1CC1` [Formula A] as the compound, how does the MIC [1] read?
Answer: The MIC was 0.5 µg/mL.

Question: What about the MIC [2] of the same compound?
Answer: Its MIC is 2 µg/mL.

Question: What about the MIC [3] of the same compound?
Answer: Its MIC is 1 µg/mL.

Question: And the “cytotoxicity (comparison)” value [4, 10]?
Answer: Its value is “similar”.

Question: And the CC50 at 24 h [5]?
Answer: Its CC50 at 24 h is over 1020 µg/mL.

Question: And the “hydrophobicity (comparison)” value [6, 11]?
Answer: Its value is “intermediate hydrophobicity”.

Question: And the “activity against all tested bacterial strains” value (“activity” for short) [7, 11]?
Answer: The value was “considerably higher activity against all tested bacterial strains”.

Question: And the “activity” value ([7]; Formula A compared with Formula K)?
Answer: The value was “more active against all tested bacterial strains”.

Question: What about the MIC [8] of the same compound?
Answer: The MIC was 1 µg/mL.

Question: What about the MIC [9] of the same compound?
Answer: The MIC was 4 µg/mL.

Question: Which results are given for `CN(CCCOc1cc(/C=C/c2ccc(/C=C/c3cc(OCCCN(C)C(=N)C4CC4)cc(OCCCN(C)C(=N)C4CC4)c3)cc2)cc(OCCCN(C)C(=N)C2CC2)c1)C(=N)C1CC1` [Formula B]?
Answer: MIC [1]: 1 µg/mL; MIC [2]: 8 µg/mL; MIC [3]: 1 µg/mL; CC50 at 24 h [5]: 1020 µg/mL; MIC [8]: 1 µg/mL; MIC [9]: 8 µg/mL

Question: With `CCCN(CCCOc1cc(/C=C/c2ccc(/C=C/c3cc(OCCCN(CCC)C(=N)C4CC4)cc(OCCCN(CCC)C(=N)C4CC4)c3)cc2)cc(OCCCN(CCC)C(=N)C2CC2)c1)C(=N)C1CC1` [Formula C] as the compound, how does the MIC [1] read?
Answer: Its MIC is 1 µg/mL.

Question: And the MIC [2]?
Answer: Its MIC is 32 µg/mL.

Question: And the MIC [3]?
Answer: The MIC was 2 µg/mL.

Question: And the “cytotoxicity (comparison)” value [4, 12]?
Answer: The value was “different cytotoxicity”.

Question: What about the “cytotoxicity (comparison)” value [4, 13] of the same compound?
Answer: The value was “similar”.

Question: What about the CC50 at 24 h [5] of the same compound?
Answer: Its CC50 at 24 h is 16 µg/mL.

Question: And the “hydrophobicity (comparison)” value [6, 12]?
Answer: The value was “different”.

Question: What about the “activity” value [7, 12] of the same compound?
Answer: The value was “identical activities against all tested bacterial strains”.

Question: What about the “activity” value [7, 13] of the same compound?
Answer: The value was “more active against all tested bacterial strains”.

Question: And the MIC [8]?
Answer: Its MIC is 2 µg/mL.

Question: And the MIC [9]?
Answer: The MIC was 8 µg/mL.

Question: With `CCC(=N)N(C)CCCOc1cc(/C=C/c2ccc(/C=C/c3cc(OCCCN(C)C(=N)CC)cc(OCCCN(C)C(=N)CC)c3)cc2)cc(OCCCN(C)C(=N)CC)c1` [Formula D] as the compound, how does the MIC [1] read?
Answer: The MIC was 1 µg/mL.

Question: What about the MIC [2] of the same compound?
Answer: Its MIC is 8 µg/mL.

Question: What about the MIC [3] of the same compound?
Answer: Its MIC is 1 µg/mL.

Question: What about the CC50 at 24 h [5] of the same compound?
Answer: The CC50 at 24 h was over 1020 µg/mL.

Question: And the MIC [8]?
Answer: Its MIC is 2 µg/mL.

Question: And the MIC [9]?
Answer: The MIC was 16 µg/mL.

Question: For `CCC(=N)N(CCCOc1cc(/C=C/c2ccc(/C=C/c3cc(OCCCN(C(=N)CC)C4CC4)cc(OCCCN(C(=N)CC)C4CC4)c3)cc2)cc(OCCCN(C(=N)CC)C2CC2)c1)C1CC1` [Formula E], which MIC [1] is on record?
Answer: The MIC was 1 µg/mL.

Question: What about the MIC [2] of the same compound?
Answer: Its MIC is 16 µg/mL.

Question: And the MIC [3]?
Answer: The MIC was 2 µg/mL.

Question: And the CC50 at 24 h [5]?
Answer: The CC50 at 24 h was 128 µg/mL.

Question: And the MIC [8]?
Answer: Its MIC is 2 µg/mL.

Question: What about the MIC [9] of the same compound?
Answer: The MIC was 8 µg/mL.

Question: Which MIC [1] does the source give for `CCCN(CCCOc1cc(/C=C/c2ccc(/C=C/c3cc(OCCCN(CCC)C(=N)CC)cc(OCCCN(CCC)C(=N)CC)c3)cc2)cc(OCCCN(CCC)C(=N)CC)c1)C(=N)CC` [Formula F] here?
Answer: The MIC was 1 µg/mL.

Question: And the MIC [2]?
Answer: The MIC was 16 µg/mL.

Question: And the MIC [3]?
Answer: Its MIC is 2 µg/mL.

Question: And the CC50 at 24 h [5]?
Answer: The CC50 at 24 h was 32 µg/mL.

Question: And the MIC [8]?
Answer: Its MIC is 2 µg/mL.

Question: What about the MIC [9] of the same compound?
Answer: The MIC was 8 µg/mL.

Question: Which results are given for `N=C(CC1CC1)NCCCOc1cc(/C=C/c2ccc(/C=C/c3cc(OCCCNC(=N)CC4CC4)cc(OCCCNC(=N)CC4CC4)c3)cc2)cc(OCCCNC(=N)CC2CC2)c1` [Formula G]?
Answer: MIC [1]: 1 µg/mL; MIC [2]: 8 µg/mL; MIC [3]: 2 µg/mL; CC50 at 24 h [5]: 256 µg/mL; MIC [8]: 2 µg/mL; MIC [9]: 4 µg/mL

Question: Which MIC [1] does the source give for `C/N=C(\C)NCCCOc1cc(/C=C/c2ccc(/C=C/c3cc(OCCCN/C(C)=N/C)cc(OCCCN/C(C)=N/C)c3)cc2)cc(OCCCN/C(C)=N/C)c1` [Formula H] here?
Answer: Its MIC is 1 µg/mL.

Question: What about the MIC [2] of the same compound?
Answer: The MIC was 32 µg/mL.

Question: What about the MIC [3] of the same compound?
Answer: The MIC was 2 µg/mL.

Question: And the CC50 at 24 h [5]?
Answer: Its CC50 at 24 h is over 1020 µg/mL.

Question: What about the MIC [8] of the same compound?
Answer: Its MIC is 2 µg/mL.

Question: What about the MIC [9] of the same compound?
Answer: The MIC was 16 µg/mL.

Question: For `C(=C\c1cc(OCCCNC2=NCCC2)cc(OCCCNC2=NCCC2)c1)/c1ccc(/C=C/c2cc(OCCCNC3=NCCC3)cc(OCCCNC3=NCCC3)c2)cc1` [Formula J], which MIC [1] is on record?
Answer: The MIC was 1 µg/mL.

Question: And the MIC [2]?
Answer: The MIC was 16 µg/mL.

Question: What about the MIC [3] of the same compound?
Answer: The MIC was 1 µg/mL.

Question: And the CC50 at 24 h [5]?
Answer: The CC50 at 24 h was 1020 µg/mL.

Question: And the MIC [8]?
Answer: The MIC was 2 µg/mL.

Question: What about the MIC [9] of the same compound?
Answer: The MIC was 16 µg/mL.

Question: Which MIC [1] does the source give for `C/C(=N\C1CC1)NCCCOc1cc(/C=C/c2ccc(/C=C/c3cc(OCCCN/C(C)=N/C4CC4)cc(OCCCN/C(C)=N/C4CC4)c3)cc2)cc(OCCCN/C(C)=N/C2CC2)c1` [Formula K] here?
Answer: The MIC was 1 µg/mL.

Question: What about the MIC [2] of the same compound?
Answer: The MIC was 32 µg/mL.

Question: And the MIC [3]?
Answer: Its MIC is 2 µg/mL.

Question: And the “cytotoxicity (comparison)” value [4, 12]?
Answer: Its value is “different cytotoxicity”.

Question: And the “cytotoxicity (comparison)” value [4, 10]?
Answer: The value was “similar”.

Question: What about the CC50 at 24 h [5] of the same compound?
Answer: The CC50 at 24 h was over 1020 µg/mL.

Question: And the “hydrophobicity (comparison)” value [6, 12]?
Answer: Its value is “different”.

Question: What about the “activity” value [7, 12] of the same compound?
Answer: Its value is “identical activities against all tested bacterial strains”.

Question: And the MIC [8]?
Answer: The MIC was 2 µg/mL.

Question: What about the MIC [9] of the same compound?
Answer: The MIC was 8 µg/mL.
